Measurements published in PubChem BioAssay (NCI).
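Exposure lasted 48 hours, with cells grown in 96-well plates and compounds tested at five concentrations. TGI denotes the concentration required for complete inhibition of growth.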

Columns and labels:
Assay in all cases: growth of human tumour cells (NCI), 48 h
[1] = tested on: SF-295 CNS
[2] = tested on: HCT-116 colon
[3] = tested on: XF 498 CNS
[4] = tested on: RXF-631 renal
[5] = tested on: COLO 205 colon
[6] = tested on: LOX IMVI melanoma
[7] = tested on: CCRF-CEM leukemia
[8] = tested on: MOLT-4 leukemia
[9] = tested on: UACC-257 melanoma
[10] = tested on: OVCAR-3 ovarian
[11] = tested on: M14 melanoma
[12] = tested on: HL-60(TB) leukemia
[13] = tested on: OVCAR-4 ovarian
[14] = tested on: SK-MEL-5 melanoma
[15] = tested on: HT29 colon
[16] = tested on: IGROV1 ovarian
[17] = tested on: UO-31 renal
[18] = tested on: OVCAR-8 ovarian
[19] = tested on: ACHN renal
[20] = tested on: HOP-92 NSCLC
[21] = tested on: HCT-15 colon
[22] = tested on: SNB-75 CNS
[23] = tested on: NCI-H23 lung
[24] = tested on: TK-10 renal
[25] = tested on: SNB-78 CNS
[26] = tested on: DMS 114 small cell lung
[27] = tested on: SK-OV-3 ovarian
[28] = tested on: HOP-18 NSCLC
[29] = tested on: CAKI-1 renal
[30] = tested on: UACC-62 melanoma
[31] = tested on: MALME-3M melanoma
[32] = tested on: A549 NSCLC
[33] = tested on: DLD-1 colon
[34] = tested on: SN12C renal
[35] = tested on: K-562 leukemia
[36] = tested on: RXF 393 renal
[37] = tested on: KM20L2 colon
[38] = tested on: NCI-H460 lung
[39] = tested on: M19-MEL melanoma
[40] = tested on: EKVX NSCLC
[41] = tested on: SK-MEL-28 melanoma
[42] = tested on: U251 CNS
[43] = tested on: RPMI-8226 leukemia
[44] = tested on: DMS 273 small cell lung
[45] = tested on: SW-620 colon
[46] = tested on: SNB-19 CNS
[47] = tested on: HOP-62 NSCLC
[48] = tested on: SF-539 CNS
[49] = tested on: LXFL 529 NSCLC
[50] = tested on: NCI-H226 lung
[51] = tested on: 786-0 renal
[52] = tested on: HCC-2998 colon
[53] = tested on: NCI-H522 lung
[54] = tested on: SF-268 CNS
[55] = tested on: KM12 colon
[56] = tested on: SR leukemia
[57] = tested on: SK-MEL-2 melanoma

CCOC(=O)Cc1cc(OC)c(OC)cc1/C(Cl)=C(\CO)c1ccc(OC)c(OC)c1
TGI [1]: > 100 µM | TGI [2]: > 100 µM | TGI [3]: 49.2 µM | TGI [4]: > 100 µM | TGI [5]: > 100 µM | TGI [6]: > 100 µM | TGI [7]: > 100 µM | TGI [8]: > 100 µM | TGI [9]: > 100 µM | TGI [10]: > 100 µM | TGI [11]: > 100 µM | TGI [12]: > 100 µM | TGI [13]: > 100 µM | TGI [14]: > 100 µM | TGI [15]: > 100 µM | TGI [16]: > 100 µM | TGI [17]: > 100 µM | TGI [18]: > 100 µM | TGI [19]: > 100 µM | TGI [20]: 98.1 µM | TGI [21]: > 100 µM | TGI [22]: 54 µM | TGI [23]: > 100 µM | TGI [24]: > 100 µM | TGI [25]: > 100 µM | TGI [26]: > 100 µM | TGI [27]: > 100 µM | TGI [28]: > 100 µM | TGI [29]: > 100 µM | TGI [30]: > 100 µM | TGI [31]: > 100 µM | TGI [32]: > 100 µM | TGI [33]: > 100 µM | TGI [34]: > 100 µM | TGI [35]: > 100 µM | TGI [36]: > 100 µM | TGI [37]: > 100 µM | TGI [38]: > 100 µM | TGI [39]: > 100 µM | TGI [40]: > 100 µM | TGI [41]: > 100 µM | TGI [42]: > 100 µM | TGI [43]: > 100 µM | TGI [44]: > 100 µM | TGI [45]: > 100 µM | TGI [46]: > 100 µM

CCOC1=C2N=C(C(CC)c3ccccc3F)N=C2C(=O)c2ccccc21 (stereo not given)
TGI [1]: > 100 µM | TGI [2]: > 100 µM | TGI [47]: > 100 µM | TGI [4]: > 100 µM | TGI [5]: > 100 µM | TGI [7]: > 100 µM | TGI [8]: > 100 µM | TGI [48]: > 100 µM | TGI [9]: > 100 µM | TGI [10]: > 100 µM | TGI [11]: > 100 µM | TGI [12]: > 100 µM | TGI [49]: > 100 µM | TGI [13]: > 100 µM | TGI [15]: > 100 µM | TGI [17]: > 100 µM | TGI [18]: > 100 µM | TGI [19]: > 100 µM | TGI [50]: > 100 µM | TGI [20]: > 100 µM | TGI [21]: > 100 µM | TGI [22]: 47.8 µM | TGI [51]: > 100 µM | TGI [23]: > 100 µM | TGI [24]: > 100 µM | TGI [26]: > 100 µM | TGI [52]: > 100 µM | TGI [53]: > 100 µM | TGI [54]: > 100 µM | TGI [29]: > 100 µM | TGI [55]: > 100 µM | TGI [30]: > 100 µM | TGI [31]: > 100 µM | TGI [32]: > 100 µM | TGI [34]: > 100 µM | TGI [35]: > 100 µM | TGI [36]: 74.8 µM | TGI [56]: > 100 µM | TGI [37]: > 100 µM | TGI [38]: > 100 µM | TGI [39]: > 100 µM | TGI [40]: > 100 µM | TGI [41]: > 100 µM | TGI [42]: > 100 µM | TGI [43]: > 100 µM | TGI [44]: > 100 µM | TGI [45]: > 100 µM | TGI [57]: > 100 µM | TGI [46]: > 100 µM
